# Tests used:
# [1] = system: XOD; experiment: Serum XOD activity of high uric acid mouse models, determined using an ELISA kit; format: in vivo, C57BL/6 mice; conditions: high uric acid mice, 100 mg/kg of body weight, intragastric, 30 days, mean ± SD, n = 6
# Procedure: (§1) C57BL/6 mice (16.7-20.4 g, 6-7 weeks old) were provided by the Guangdong Medical Laboratory Animal Center, and quarantined for 4 days before the trial. During the trial, the mice were kept in a house with stable conditions with a 12 h:12 h light-dark cycle and given ad libitum access to food and water.
# The mice were divided according to their weights into a negative control group (normal mice), a model control group (mice with high uric acid levels), a positive control group (mice with high uric acid levels, administrated with allopurinol tablets), a low-dosage group (mice with high uric acid levels, administrated with 50 mg/kg of the okra polygalacturonic acid), and a high-dosage group (mice with high uric acid levels, administrated with 200 mg/kg of the okra polygalacturonic acid), six mice in each group. […]
# (§2) 3 hours after the last administration, the mice were anaesthetized using isoflurane, and blood was collected from each mouse by removing eyeballs. […] Blood uric acid levels, blood creatinine levels, and serum urea nitrogen levels were measured by an automatic biochemical analyzer, and XOD activities were determined using an ELISA kit.
# [2] = system: mice with high uric acid levels; experiment: Evaluation of uric acid-lowering effect in high uric acid mouse models (blood uric acid, blood creatinine, serum urea nitrogen); format: in vivo, C57BL/6 mice; conditions: 100 mg/kg of body weight, mean ± SD, n = 6
# Procedure: as §1
# The mice were divided according to their weights into a negative control group (normal mice), a model control group (mice with high uric acid levels), a positive control group (mice with high uric acid levels, administrated with allopurinol tablets), a low-dosage group (mice with high uric acid levels, […] acid), and a high-dosage group (mice with high uric acid levels, […]), six mice in each group. The mice of each group were treated with a corresponding solution through intragastric administration with a dosage of 20 mL per kg of body weight, wherein the mice of the positive control group were treated with a 5 mg/mL allopurinol solution, the mice of the negative control group and the model control group were treated with purified water, one administration per day. […] The mice were treated for 30 successive days.
# Method for preparing OP1 samples: 45 mg of the okra polygalacturonic acid was weighed out and mixed well with a certain volume of purified water. The mixture was further added with purified water to a final volume of 4.5 mL to give a 10 mg/mL high-dosage solution, which shall be shaken well before used. 0.9 mL of the high-dosage solution was added with purified water to a final volume of 3.6 mL and mixed well to give a 2.5 mg/mL low-dosage solution, which shall be shaken well before used. […]
# as §2
smiles,measurement,setting,value
"Oc1ncnc2[nH]ncc12 [Positive control, allopurinol]",XOD activity,[1],19.8 ± 2.2 U/L
same,blood creatinine,"[2]; intragastric, 30 days",30.2 ± 5.7 µmol/L
same,serum urea nitrogen,"[2]; intragastric, 30 days",23.3 ± 4.1 mmol/L
same,Blood uric acid,"[2]; one intragastric administration per day for 30 days, serum 3 hours after last administration",134.8 ± 19.9 µmol/L

# — US11479616B2, “Method for preparing okra polygalacturonic acid having uric acid-lowering effect” (Institute of Biological and Medical Engineering, Guangdong …, priority 2020, dated 2022)
